Assays:
[1] = molecular target: T1, PIM3 (Homo sapiens, UniProt Q86V86); test: RBC HotSpot kinase inhibition assay, PIM3; assay type: biochemical
T1 construct: purchased Millipore 14-738
Experimental: Reagents. Base Reaction Buffer: 20 mM Hepes (pH 7.5), 10 mM MgCl2, 1 mM EGTA, 0.01% Brij35, 0.02 mg/ml BSA, 0.1 mM Na3VO4, 2 mM DTT, 1% DMSO. The following kinases were used in the assay at the indicated concentrations:
The following substrates were used in combination with the indicated kinases in the assay at the indicated concentration:
No cofactors were added to any of the reactions.
• 1. Prepared substrate in freshly prepared Reaction Buffer. • 2. Delivered kinase into the substrate solution and gently mixed. • 3. Delivered test compound in 100% DMSO into the kinase reaction mixture by Acoustic technology (Echo550; nanoliter range), incubated for 20 minutes at room temperature. • 4. Delivered ^33P-ATP into the reaction mixture to initiate the reaction. • 5. Incubated for 2 hours at room temperature. • 6. Detected kinase activity by P81 filter-binding method.
The results of the RBC HotSpot™ kinase assay are set forth in Table 1, wherein “A” indicates an IC50<10 nM, “B” indicates an IC50 wherein 10 nM≤IC50≤100 nM, and “C” indicates an IC50>100 nM.

[2] = test system: Caspase 3/7; test: Apoptosis assay (Caspase 3/7) in A549 cells; assay type: cell-based; conditions: Homo sapiens, 24 hours, read-out: EC50, Caspase 3/7 activation
From the text: Overview. PIM1 is a kinase, and has many downstream targets including Bad (BCL2 associated agonist of cell death), a member of the BCL-2 family. BCL-2 family members are regulators of the programmed cell death pathways. Proapoptotic activity of Bad is regulated through its phosphorylation. Dephosphorylated Bad forms a heterodimer with Bcl-2 and Bcl-xL, inactivating them and thus allowing Bax/Bak-triggered apoptosis. Bad phosphorylation is thus anti-apoptotic, and Bad dephosphorylation is pro-apoptotic. PIM inhibition is expected to result in a decrease of phosphorylated Bad, and an increase in apoptosis.
Procedure. Three thousand five hundred A549 cells (ATCC, CCL-185) were added per well of a 384-well plate in a total volume of twenty-five microliters and cultured in RPMI medium (no phenol red)+plus ten percent fetal calf serum. The next day, DMSO or test compound was added (90 nanoliters of test compound/DMSO per well) at 7 different concentrations starting at 10 micromolar (3.3-fold dilution). After 24 hours at 37° C. with 5% CO2, apoptosis was measured by using the Caspase 3/7 assay system (Promega, G8090). […] The cells were then incubated at room temperature for 30 minutes and luminescence was measured for each sample using a plate reading luminometer (Envision, PerkinElmer).

[3] = test system: IL-23-induced hyperplasia; test: IL-23 induced hyperplasia mouse model (psoriasis study); assay type: in vivo, C57BL/6J mice; conditions: for IL-17A production in ear tissue / IL-22 synthesis in ear tissue: day four; for thickness of the ear epidermal tissue: vs rmIL-23/vehicle; for gross ear thickness: caliper, vs rmIL-23/vehicle control group, BID dosing
From the text: The IL-23-induced hyperplasia model involves the injection of IL-23 into the ear of mice, and is dependent on IL-22 for the development of dermal inflammation and acanthosis. This model is commonly used to investigate pathways involved in psoriasis as well as potential therapies. To test the ability of Compounds 2 and 4 to reduce psoriasis in vivo, an IL-23 induced hyperplasia mouse model was utilized, and analyses of end-points, such as IL-17A and IL-22 levels, and histological measure of epidermal thickness of the ear tissue, were performed. Procedure. Female C57BL/6J mice between 9 to 13 weeks old (purchased from Taconic Biosciences) were weighed on the day prior to study start to establish a baseline. All treatment arms contained ten animals. All animals, except the sham/vehicle group received 0.4 μg of recombinant mouse IL-23 (rmIL-23) in a volume of 20 μL intradermally into one ear. Mice in group 1 (sham/vehicle) received 20 μL PBS. A total of 4 injections per ear was performed while the second ear was not injected nor analyzed. All drugs were prepared in 0.5 percent methylcellulose and 2 percent Tween 80. Starting on day zero of the study (0.5 to 4 hours before rmIL-23 injection), two doses of test compound (100 or 150 milligrams per kilogram of Compound 4, or 50 or 75 milligrams per kilogram of Compound 2) were given. All dosing was at the same time (+/−1 hour) each day with no less than 10 hours and no more than 14 hours between doses. On days zero (before rmIL-23 injection), three, and four (approximately 24 hours after the final hyperplasia induction injection), thickness of ears was measured using a caliper. Measurements were performed blind, by a person unaware of group or previous measurements. On day four, approximately 24 hours after the final hyperplasia induction injection, all mice were euthanized, and treated ears collected and weighed. Half of each ear was weighed and frozen for cytokine analysis (IL-17A and IL-22 concentration was measured using the Luminex technology by ELISA). The other half of each ear were fixed in 10 percent buffered formalin following H&E staining for histological analysis.

[4] = 100 milligrams per kilogram twice a day
[5] = 150 milligrams per kilogram twice a day
[6] = 75 milligrams per kilogram twice a day

| Structure (SMILES) | IC50 [1] [µM] | EC50 [2] [µM] | IL-17A production in ear tissue [3, 4] | IL-22 synthesis in ear tissue [3, 4] | thickness of the ear epidermal tissue [3, 4] | gross ear thickness, comparison between groups [3, 5] | IL-17A production in ear tissue [3, 5] | IL-22 synthesis in ear tissue [3, 5] | thickness of the ear epidermal tissue [3, 5] | gross ear thickness [3] | IL-17A production in ear tissue [3, 6] | IL-22 synthesis in ear tissue [3, 6] | thickness of the ear epidermal tissue [3, 6] |
| --- | --- | --- | --- | --- | --- | --- | --- | --- | --- | --- | --- | --- | --- |
| CC(C)(O)C12CCC(Nc3ccc4ncc(-c5cc(C6CC6)[nH]n5)n4n3)(CC1)CC2 [Compound 4, 2-(4-((3-(5-cyclopropyl-1H-pyrazol-3-yl)imidazo[1,2-b]pyridazin-6-yl)amino)bicyclo[2.2.2]octan-1-yl)propan-2-ol] | < 0.01 | 1 to 20 | strongly inhibited | reduced | significantly reduced | greater effect | strongly inhibited | reduced | significantly reduced | significantly reduced | – | – | – |
| Cc1cc(-c2cnc3ccc(NC45CCC(C(C)(C)O)(CC4)CC5)nn23)n[nH]1 [Compound 2, 2-(4-((3-(5-methyl-1H-pyrazol-3-yl)imidazo[1,2-b]pyridazin-6-yl)amino)bicyclo[2.2.2]octan-1-yl)propan-2-ol] | < 0.01 | 1 to 20 | – | – | – | – | – | – | – | significantly reduced | strongly inhibited | reduced | significantly reduced |

— patent US20240360135A1, “IMIDAZO[1,2-B]PYRIDAZINYL COMPOUNDS AND USES THEREOF” (Sumitomo Pharma Oncology, Inc., priority 2021, published 2024)
